Patent publication US11185075B2, “Herbicidal phenyltriazolinones” (BASF SE, priority 2016, dated 2021)

What was measured:
Type in all cases: in vivo
[1] = system: Amaranthus retroflexus; assay: greenhouse pre-emergence herbicidal test; conditions: 16 g/ha, scale from 0 to 100
From the text: (§1) The seeds of the test plants were sown separately for each species. For the pre-emergence treatment, the active ingredients, which had been suspended or emulsified in water, were applied directly after sowing by means of finely distributing nozzles. The containers were irrigated gently to promote germination and growth and subsequently covered with transparent plastic hoods until the plants had rooted. This cover caused uniform germination of the test plants, unless this had been impaired by the active ingredients. Depending on the species, the plants were kept at 10-25° C. or 20-35° C., respectively. The test period extended over 2 to 4 weeks. During this time, the plants were tended, and their response to the individual treatments was evaluated. Evaluation was carried out using a scale from 0 to 100. 100 means no emergence of the plants, or complete destruction of at least the aerial moieties, and 0 means no damage, or normal course of growth. A good herbicidal activity is given at values of at least 70 and a very good herbicidal activity is given at values of at least 85.

[2] = system: Setaria faberi; assay: greenhouse pre-emergence herbicidal test; conditions: 16 g/ha, scale from 0 to 100
From the text: as §1

[3] = system: Alopecurus myosuroides; assay: greenhouse post-emergence herbicidal test; conditions: scale from 0 to 100
From the text: (§2) The seeds of the test plants were sown separately for each species. For the post-emergence treatment, the test plants were first grown to a height of 3 to 15 cm, depending on the plant habit, and only then treated with the active ingredients which had been suspended or emulsified in water. For this purpose, the test plants were either sown directly and grown in the same containers, or they were first grown separately as seedlings and transplanted into the test containers a few days prior to treatment. Depending on the species, the plants were kept at 10-25° C. or 20-35° C., respectively. The test period extended over 2 to 4 weeks. During this time, the plants were tended, and their response to the individual treatments was evaluated. Evaluation was carried out using a scale from 0 to 100. 100 means no emergence of the plants, or complete destruction of at least the aerial moieties, and 0 means no damage, or normal course of growth. A good herbicidal activity is given at values of at least 70 and a very good herbicidal activity is given at values of at least 85.

[4] = system: Lolium multiflorum; assay: greenhouse post-emergence herbicidal test; conditions: 4 g/ha, scale from 0 to 100
From the text: as §2

[5] = system: Avena fatua; assay: greenhouse post-emergence herbicidal test; conditions: 16 g/ha, scale from 0 to 100
From the text: as §2

`CCOC(=O)COc1ccc(Oc2cc(-n3nc(C)n(C(F)F)c3=O)c(F)cc2Cl)cc1` [compound B] was tested, and the “damages, Amaranthus retroflexus” value [1] was 45, the “damages, Setaria faberi” value [2] was 0 and the “damages, Alopecurus myosuroides” value ([3]; 4 g/ha) was 30. For the same molecule, the “damages, Lolium multiflorum” value [4] was 70.
`CCOC(=O)COc1ccccc1Oc1cc(-n2nc(C)n(C(F)F)c2=O)c(F)cc1Cl` [Example 3, Ethyl 2-[2-[2-chloro-5-[4-(difluoromethyl)-3-methyl-5-oxo-1,2,4-triazol-1-yl]-4-fluoro-phenoxy]phenoxy]acetate] was tested, and the “damages, Amaranthus retroflexus” value [1] was 85, the “damages, Setaria faberi” value [2] was 85 and the “damages, Avena fatua” value [5] was 70. The “damages, Alopecurus myosuroides” value ([3]; 4 g/ha) was 70, the “damages, Alopecurus myosuroides” value ([3]; 16 g/ha) was 95 and the “damages, Lolium multiflorum” value [4] was 90.
In the case of `CCOC(=O)COc1cccc(Oc2cc(-n3nc(C)n(C(F)F)c3=O)c(F)cc2Cl)c1` [compound A], the “damages, Amaranthus retroflexus” value [1] was 45, the “damages, Setaria faberi” value [2] was 0 and the “damages, Avena fatua” value [5] was 20. The “damages, Alopecurus myosuroides” value ([3]; 16 g/ha) was 55.
